According to PubChem BioAssay AID2060340 (Molecular Pharmacology Branch, DTP, NCI, 2025):
Values joined by “and” are separate entries in the source; they are usually repeats but may differ in a detail not shown here. Equal entries are not always repeated.

Tested on: 349418-098-R-PDC spheroids, viability, % test/control
Assay: Anticancer human tumor 349418-098-R-PDC patient-derived lung adenocarcinoma cell line growth inhibition [IpAb]
Settings: spheroids with HUVEC and MSC; for viability, T/C: stronger effect = lower value
Outline: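 Combinations with ipatasertib or abemaciclib were tested on tumour spheroids holding HUVEC (25%) and MSC (15%) alongside 60% malignant cells. Top concentration was at or near clinical Cmax (10 microM if undefined), descending in half-log steps.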

[1] = curve of first compound, second compound 0.1 µM
[2] = curve of first compound, second compound 0.316 µM
[3] = curve of first compound, second compound 1 µM
[4] = second compound 0.1 µM, first compound 0.0316 µM
[5] = second compound 0.1 µM, first compound 0.1 µM
[6] = second compound 0.1 µM, first compound 0.316 µM
[7] = second compound 0.1 µM, first compound 1 µM
[8] = second compound 0.316 µM, first compound 0.0316 µM
[9] = second compound 0.316 µM, first compound 0.1 µM
[10] = second compound 0.316 µM, first compound 0.316 µM
[11] = second compound 0.316 µM, first compound 1 µM
[12] = second compound 1 µM, first compound 0.0316 µM
[13] = second compound 1 µM, first compound 0.1 µM
[14] = second compound 1 µM, first compound 0.316 µM
[15] = second compound 1 µM, first compound 1 µM
[16] = curve of first compound, second compound 3.16 µM
[17] = curve of first compound, second compound 10 µM
[18] = second compound 0.1 µM, first compound 3.16 µM
[19] = second compound 0.1 µM, first compound 10 µM
[20] = second compound 0.316 µM, first compound 3.16 µM
[21] = second compound 0.316 µM, first compound 10 µM
[22] = second compound 1 µM, first compound 3.16 µM
[23] = second compound 1 µM, first compound 10 µM
[24] = second compound 3.16 µM, first compound 0.0316 µM
[25] = second compound 3.16 µM, first compound 0.1 µM
[26] = second compound 3.16 µM, first compound 0.316 µM
[27] = second compound 3.16 µM, first compound 1 µM
[28] = second compound 3.16 µM, first compound 3.16 µM
[29] = second compound 3.16 µM, first compound 10 µM
[30] = second compound 10 µM, first compound 0.0316 µM
[31] = second compound 10 µM, first compound 0.1 µM
[32] = second compound 10 µM, first compound 0.316 µM
[33] = second compound 10 µM, first compound 1 µM
[34] = second compound 10 µM, first compound 3.16 µM
[35] = second compound 10 µM, first compound 10 µM
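Note: spheroids exposed to compounds for 7 days.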

Q: Which results are given for `COc1c(OCCCN2CCOCC2)ccc2c3n(c(=NC(=O)c4cnc(N)nc4)nc12)CCN3` + CCN1CCN(Cc2ccc(Nc3ncc(F)c(-c4cc(F)c5nc(C)n(C(C)C)c5c4)n3)nc2)CC1?
A: IC50 (curve of first compound, second compound 0.01 µM): 5.6 nM; IC50 (curve of first compound, second compound 0.0316 µM): < 3.16 nM; IC50 [1]: < 3.16 nM; IC50 [2]: < 3.16 nM; IC50 [3]: < 3.16 nM; viability, T/C (second compound 0.01 µM, first compound 0.00316 µM): 66.8%; viability, T/C (second compound 0.01 µM, first compound 0.01 µM): 32.9%; viability, T/C (second compound 0.01 µM, first compound 0.0316 µM): 9.39%; viability, T/C (second compound 0.01 µM, first compound 0.1 µM): 6.45%; viability, T/C (second compound 0.01 µM, first compound 0.316 µM): 6.48%; viability, T/C (second compound 0.01 µM, first compound 1 µM): 6.24%; viability, T/C (second compound 0.0316 µM, first compound 0.00316 µM): 48.8%; viability, T/C (second compound 0.0316 µM, first compound 0.01 µM): 13.5%; viability, T/C (second compound 0.0316 µM, first compound 0.0316 µM): 8.91%; viability, T/C (second compound 0.0316 µM, first compound 0.1 µM): 6.1%; viability, T/C (second compound 0.0316 µM, first compound 0.316 µM): 5.57%; viability, T/C (second compound 0.0316 µM, first compound 1 µM): 5.71%; viability, T/C (second compound 0.1 µM, first compound 0.00316 µM): 23.6%; viability, T/C (second compound 0.1 µM, first compound 0.01 µM): 14%; viability, T/C [4]: 8.06%; viability, T/C [5]: 6.16%; viability, T/C [6]: 6.04%; viability, T/C [7]: 5.83%; viability, T/C (second compound 0.316 µM, first compound 0.00316 µM): 15.9%; viability, T/C (second compound 0.316 µM, first compound 0.01 µM): 10.6%; viability, T/C [8]: 7.73%; viability, T/C [9]: 6.28%; viability, T/C [10]: 6.11%; viability, T/C [11]: 6.92%; viability, T/C (second compound 1 µM, first compound 0.00316 µM): 14%; viability, T/C (second compound 1 µM, first compound 0.01 µM): 12.3%; viability, T/C [12]: 8.15%; viability, T/C [13]: 6.25%; viability, T/C [14]: 7.04%; viability, T/C [15]: 7.33%

Q: With `C=CC(=O)N1CCN(c2nc(=O)n(-c3c(C)ccnc3C(C)C)c3nc(-c4c(O)cccc4F)c(F)cc23)C(C)C1` (configuration not stated) + CC(C)NCC(C(=O)N1CCN(c2ncnc3c2C(C)CC3O)CC1)c1ccc(Cl)cc1 as the molecule, how does the IC50 [1] read?
A: The IC50 was 4010 nM.

Q: And the IC50 [2]?
A: The IC50 was 1000 nM.

Q: What about the IC50 [3] of the same molecule?
A: Its IC50 is less than 31.6 nM.

Q: What about the IC50 [16] of the same molecule?
A: The IC50 was less than 31.6 nM.

Q: And the IC50 [17]?
A: Its IC50 is less than 31.6 nM.

Q: What about the viability, T/C [4] of the same molecule?
A: The viability, T/C was 95.8%.

Q: What about the viability, T/C [5] of the same molecule?
A: The viability, T/C was 89.6%.

Q: What about the viability, T/C [6] of the same molecule?
A: Its viability, T/C is 76.7%.

Q: And the viability, T/C [7]?
A: Its viability, T/C is 70.2%.

Q: What about the viability, T/C [18] of the same molecule?
A: The viability, T/C was 64.7%.

Q: What about the viability, T/C [19] of the same molecule?
A: The viability, T/C was 21.7%.

Q: What about the viability, T/C [8] of the same molecule?
A: Its viability, T/C is 51.9%.

Q: What about the viability, T/C [9] of the same molecule?
A: Its viability, T/C is 55.1%.

Q: What about the viability, T/C [10] of the same molecule?
A: The viability, T/C was 51.4%.

Q: And the viability, T/C [11]?
A: Its viability, T/C is 50.2%.

Q: What about the viability, T/C [20] of the same molecule?
A: Its viability, T/C is 23.9%.

Q: What about the viability, T/C [21] of the same molecule?
A: Its viability, T/C is 12.5%.

Q: What about the viability, T/C [12] of the same molecule?
A: The viability, T/C was 28.4%.

Q: And the viability, T/C [13]?
A: The viability, T/C was 28.3%.

Q: What about the viability, T/C [14] of the same molecule?
A: The viability, T/C was 19.6%.

Q: What about the viability, T/C [15] of the same molecule?
A: The viability, T/C was 17.2%.

Q: What about the viability, T/C [22] of the same molecule?
A: Its viability, T/C is 11.9%.

Q: And the viability, T/C [23]?
A: The viability, T/C was 7.34%.

Q: What about the viability, T/C [24] of the same molecule?
A: The viability, T/C was 12.3%.

Q: And the viability, T/C [25]?
A: The viability, T/C was 13.3%.

Q: And the viability, T/C [26]?
A: Its viability, T/C is 11.8%.

Q: And the viability, T/C [27]?
A: Its viability, T/C is 10%.

Q: What about the viability, T/C [28] of the same molecule?
A: The viability, T/C was 6.96%.

Q: And the viability, T/C [29]?
A: Its viability, T/C is 5.34%.

Q: What about the viability, T/C [30] of the same molecule?
A: The viability, T/C was 6.48%.

Q: What about the viability, T/C [31] of the same molecule?
A: Its viability, T/C is 8.12%.

Q: And the viability, T/C [32]?
A: Its viability, T/C is 6.94%.

Q: What about the viability, T/C [33] of the same molecule?
A: The viability, T/C was 5.09%.

Q: And the viability, T/C [34]?
A: The viability, T/C was 5.95%.

Q: And the viability, T/C [35]?
A: The viability, T/C was 4.63%.

Q: What does the source list for `Cn1ncc(Cl)c1-c1cc(C(=O)NC(CN)Cc2cccc(F)c2)sc1Cl` (configuration not stated) + CC(C)NCC(C(=O)N1CCN(c2ncnc3c2C(C)CC3O)CC1)c1ccc(Cl)cc1?
A: IC50 [1]: 90.8 nM; IC50 [2]: < 31.6 nM; IC50 [3]: < 31.6 nM; IC50 [16]: < 31.6 nM; IC50 [17]: < 31.6 nM; viability, T/C [4]: 79.5%; viability, T/C [5]: 45.1%; viability, T/C [6]: 29.4%; viability, T/C [7]: 12.3%; viability, T/C [18]: 6.88%; viability, T/C [19]: 0.08%; viability, T/C [8]: 49.7%; viability, T/C [9]: 31.8%; viability, T/C [10]: 25.3%; viability, T/C [11]: 12.1%; viability, T/C [20]: 7.48%; viability, T/C [21]: 0.08%; viability, T/C [12]: 23.2%; viability, T/C [13]: 22.2%; viability, T/C [14]: 15.9%; viability, T/C [15]: 10.1%; viability, T/C [22]: 6.54%; viability, T/C [23]: 0.08%; viability, T/C [24]: 15.3%; viability, T/C [25]: 12.2%; viability, T/C [26]: 10.8%; viability, T/C [27]: 8.53%; viability, T/C [28]: 6.62%; viability, T/C [29]: 0.19%; viability, T/C [30]: 7.77%; viability, T/C [31]: 8.14%; viability, T/C [32]: 7.56%; viability, T/C [33]: 6.63%; viability, T/C [34]: 5.87%; viability, T/C [35]: 0.18%

Q: `Cc1nc(NC(=O)N2CCCC2C(N)=O)sc1-c1ccnc(C(C)(C)C(F)(F)F)c1` (configuration not stated) was tested. Which viability, T/C (compound 0.0316 µM) did it give?
A: Its viability, T/C is 87.3% and 95.4%.

Q: What about the viability, T/C (compound 0.1 µM) of the same molecule?
A: The viability, T/C was 81.1% and 75.3%.

Q: What about the viability, T/C (compound 0.316 µM) of the same molecule?
A: The viability, T/C was 46.4% and 43.7%.

Q: What about the viability, T/C (compound 1 µM) of the same molecule?
A: The viability, T/C was 18.9% and 22.8%.

Q: What about the viability, T/C (compound 3.16 µM) of the same molecule?
A: Its viability, T/C is 14% and 15.1%.

Q: What about the viability, T/C (compound 10 µM) of the same molecule?
A: The viability, T/C was 11.2% and 14.1%.

Q: And the IC50 (curve of compound)?
A: Its IC50 is 284 nM and 251 nM.

Q: Which results are given for `Cc1nc(NC(=O)N2CCCC2C(N)=O)sc1-c1ccnc(C(C)(C)C(F)(F)F)c1` (configuration not stated) + CC(C)NCC(C(=O)N1CCN(c2ncnc3c2C(C)CC3O)CC1)c1ccc(Cl)cc1?
A: IC50 [1]: 117 nM; IC50 [2]: < 31.6 nM; IC50 [3]: < 31.6 nM; IC50 [16]: < 31.6 nM; IC50 [17]: < 31.6 nM; viability, T/C [4]: 75.5%; viability, T/C [5]: 52.5%; viability, T/C [6]: 31.8%; viability, T/C [7]: 16.8%; viability, T/C [18]: 14.2%; viability, T/C [19]: 12.7%; viability, T/C [8]: 40.3%; viability, T/C [9]: 33.8%; viability, T/C [10]: 24.9%; viability, T/C [11]: 12.6%; viability, T/C [20]: 13.7%; viability, T/C [21]: 9.57%; viability, T/C [12]: 21.9%; viability, T/C [13]: 16.2%; viability, T/C [14]: 13.6%; viability, T/C [15]: 11%; viability, T/C [22]: 10.2%; viability, T/C [23]: 8.68%; viability, T/C [24]: 11.4%; viability, T/C [25]: 9.53%; viability, T/C [26]: 9.54%; viability, T/C [27]: 7.39%; viability, T/C [28]: 7.95%; viability, T/C [29]: 7.62%; viability, T/C [30]: 8.29%; viability, T/C [31]: 7.93%; viability, T/C [32]: 7.48%; viability, T/C [33]: 6.51%; viability, T/C [34]: 6.55%; viability, T/C [35]: 5.85%
